Test results taken from patent US20070105792A1, “Administration Of DNA Methylation Inhibitors For Treating Epigenetic Diseases” (priority 2005, published 2007).

Assays:
cytidine deaminases = details: enzymatic degradation by cytidine deaminases, particularly in the small intestine; cited from earlier work
[1] = Chemical stability of decitabine in reconstituted and diluted aqueous infusion fluid; details: for pH: after preparation of the infusion; for Average degradation rate / Maximum degradation (% peak area): 0.1-1 mg/mL; for Average degradation rate: estimate assuming linearity
[2] = 0.1 mg/mL, 0.9% NaCl, Experiment 1: 2-8° C. one hour then room temperature, at 0 h
[3] = 0.1 mg/mL, 0.9% NaCl, Experiment 1: 2-8° C. one hour then room temperature, at 1 h
[4] = 0.1 mg/mL, 0.9% NaCl, Experiment 1: 2-8° C. one hour then room temperature, at 2 h
[5] = 0.1 mg/mL, 0.9% NaCl, Experiment 1: 2-8° C. one hour then room temperature, at 3 h
[6] = 0.1 mg/mL, 0.9% NaCl, Experiment 1: 2-8° C. one hour then room temperature, at 4 h
[7] = 0.1 mg/mL, 0.9% NaCl, Experiment 2: 2-8° C. ten hours then room temperature, at 0 h
[8] = 0.1 mg/mL, 0.9% NaCl, Experiment 2: 2-8° C. ten hours then room temperature, at 10 h
[9] = 0.1 mg/mL, 0.9% NaCl, Experiment 2: 2-8° C. ten hours then room temperature, at 11 h
[10] = 0.1 mg/mL, 0.9% NaCl, Experiment 2: 2-8° C. ten hours then room temperature, at 12 h
[11] = 0.1 mg/mL, 5% Dextrose, Experiment 1: 2-8° C. one hour then room temperature, at 0 h
[12] = 0.1 mg/mL, 5% Dextrose, Experiment 1: 2-8° C. one hour then room temperature, at 1 h
[13] = 0.1 mg/mL, 5% Dextrose, Experiment 1: 2-8° C. one hour then room temperature, at 2 h
[14] = 0.1 mg/mL, 5% Dextrose, Experiment 1: 2-8° C. one hour then room temperature, at 3 h
[15] = 0.1 mg/mL, 5% Dextrose, Experiment 1: 2-8° C. one hour then room temperature, at 4 h
[16] = 0.1 mg/mL, 5% Dextrose, Experiment 2: 2-8° C. ten hours then room temperature, at 0 h
[17] = 0.1 mg/mL, 5% Dextrose, Experiment 2: 2-8° C. ten hours then room temperature, at 10 h
[18] = 0.1 mg/mL, 5% Dextrose, Experiment 2: 2-8° C. ten hours then room temperature, at 11 h
[19] = 0.1 mg/mL, 5% Dextrose, Experiment 2: 2-8° C. ten hours then room temperature, at 12 h
[20] = 0.1 mg/mL, Lactated Ringer's, Experiment 1: 2-8° C. one hour then room temperature, at 0 h
[21] = 0.1 mg/mL, Lactated Ringer's, Experiment 1: 2-8° C. one hour then room temperature, at 1 h
[22] = 0.1 mg/mL, Lactated Ringer's, Experiment 1: 2-8° C. one hour then room temperature, at 2 h
[23] = 0.1 mg/mL, Lactated Ringer's, Experiment 1: 2-8° C. one hour then room temperature, at 3 h
[24] = 0.1 mg/mL, Lactated Ringer's, Experiment 1: 2-8° C. one hour then room temperature, at 4 h
[25] = 0.1 mg/mL, Lactated Ringer's, Experiment 2: 2-8° C. ten hours then room temperature, at 0 h
[26] = 0.1 mg/mL, Lactated Ringer's, Experiment 2: 2-8° C. ten hours then room temperature, at 10 h
[27] = 0.1 mg/mL, Lactated Ringer's, Experiment 2: 2-8° C. ten hours then room temperature, at 11 h
[28] = 0.1 mg/mL, Lactated Ringer's, Experiment 2: 2-8° C. ten hours then room temperature, at 12 h
[29] = about 1.0 mg/mL, 0.9% NaCl, Experiment 1: 2-8° C. one hour then room temperature, at 0 h
[30] = about 1.0 mg/mL, 0.9% NaCl, Experiment 1: 2-8° C. one hour then room temperature, at 1 h
[31] = about 1.0 mg/mL, 0.9% NaCl, Experiment 1: 2-8° C. one hour then room temperature, at 2 h
[32] = about 1.0 mg/mL, 0.9% NaCl, Experiment 1: 2-8° C. one hour then room temperature, at 3 h
[33] = about 1.0 mg/mL, 0.9% NaCl, Experiment 1: 2-8° C. one hour then room temperature, at 4 h
[34] = about 1.0 mg/mL, 0.9% NaCl, Experiment 2: 2-8° C. ten hours then room temperature, at 0 h
[35] = about 1.0 mg/mL, 0.9% NaCl, Experiment 2: 2-8° C. ten hours then room temperature, at 10 h
[36] = about 1.0 mg/mL, 0.9% NaCl, Experiment 2: 2-8° C. ten hours then room temperature, at 11 h
[37] = about 1.0 mg/mL, 0.9% NaCl, Experiment 2: 2-8° C. ten hours then room temperature, at 12 h
[38] = about 1.0 mg/mL, 5% Dextrose, Experiment 1: 2-8° C. one hour then room temperature, at 0 h
[39] = about 1.0 mg/mL, 5% Dextrose, Experiment 1: 2-8° C. one hour then room temperature, at 1 h
[40] = about 1.0 mg/mL, 5% Dextrose, Experiment 1: 2-8° C. one hour then room temperature, at 2 h
[41] = about 1.0 mg/mL, 5% Dextrose, Experiment 1: 2-8° C. one hour then room temperature, at 3 h
[42] = about 1.0 mg/mL, 5% Dextrose, Experiment 1: 2-8° C. one hour then room temperature, at 4 h
[43] = about 1.0 mg/mL, 5% Dextrose, Experiment 2: 2-8° C. ten hours then room temperature, at 0 h
[44] = about 1.0 mg/mL, 5% Dextrose, Experiment 2: 2-8° C. ten hours then room temperature, at 10 h
[45] = about 1.0 mg/mL, 5% Dextrose, Experiment 2: 2-8° C. ten hours then room temperature, at 11 h
[46] = about 1.0 mg/mL, 5% Dextrose, Experiment 2: 2-8° C. ten hours then room temperature, at 12 h
[47] = about 1.0 mg/mL, Lactated Ringer's, Experiment 1: 2-8° C. one hour then room temperature, at 0 h
[48] = about 1.0 mg/mL, Lactated Ringer's, Experiment 1: 2-8° C. one hour then room temperature, at 1 h
[49] = about 1.0 mg/mL, Lactated Ringer's, Experiment 1: 2-8° C. one hour then room temperature, at 2 h
[50] = about 1.0 mg/mL, Lactated Ringer's, Experiment 1: 2-8° C. one hour then room temperature, at 3 h
[51] = about 1.0 mg/mL, Lactated Ringer's, Experiment 1: 2-8° C. one hour then room temperature, at 4 h
[52] = about 1.0 mg/mL, Lactated Ringer's, Experiment 2: 2-8° C. ten hours then room temperature, at 0 h
[53] = about 1.0 mg/mL, Lactated Ringer's, Experiment 2: 2-8° C. ten hours then room temperature, at 10 h
[54] = about 1.0 mg/mL, Lactated Ringer's, Experiment 2: 2-8° C. ten hours then room temperature, at 11 h
[55] = about 1.0 mg/mL, Lactated Ringer's, Experiment 2: 2-8° C. ten hours then room temperature, at 12 h

## Nc1ncn([C@H]2C[C@H](O)[C@@H](CO)O2)c(=O)n1 [Decitabine, 5-aza-2′-deoxycytidine]
Cytidine deaminases
  Oral bioavailability: reduced oral bioavailability
[1]; [2]
  Decitabine Content (%): 97.5%
  Total Impurities (%): (2.5%)
[1]; [3]
  Decitabine Content (%): 96.9%
  Total Impurities (%): (3.2%)
[1]; [4]
  Decitabine Content (%): 95.7%
  Total Impurities (%): (4.3%)
[1]; [5]
  Decitabine Content (%): 94.1%
  Total Impurities (%): (6.0%)
[1]; [6]
  Decitabine Content (%): 92.5%
  Total Impurities (%): (7.7%)
[1]; [7]
  Decitabine Content (%): 97.8%
  Total Impurities (%): (2.2%)
[1]; [8]
  Decitabine Content (%): 93.4%
  Total Impurities (%): (6.7%)
[1]; [9]
  Decitabine Content (%): 92.3%
  Total Impurities (%): (7.7%)
[1]; [10]
  Decitabine Content (%): 90.8%
  Total Impurities (%): (9.2%)
[1]; 0.1 mg/mL, 0.9% NaCl
  pH: 6.7
[1]; [11]
  Decitabine Content (%): 97.4%
  Total Impurities (%): (2.6%)
[1]; [12]
  Decitabine Content (%): 97.2%
  Total Impurities (%): (2.7%)
[1]; [13]
  Decitabine Content (%): 96.4%
  Total Impurities (%): (3.6%)
[1]; [14]
  Decitabine Content (%): 94.9%
  Total Impurities (%): (5.1%)
[1]; [15]
  Decitabine Content (%): 93.6%
  Total Impurities (%): (6.4%)
[1]; [16]
  Decitabine Content (%): 98.2%
  Total Impurities (%): (1.9%)
[1]; [17]
  Decitabine Content (%): 94.9%
  Total Impurities (%): (5.2%)
[1]; [18]
  Decitabine Content (%): 94.5%
  Total Impurities (%): (5.6%)
[1]; [19]
  Decitabine Content (%): 93.3%
  Total Impurities (%): (6.7%)
[1]; 0.1 mg/mL, 5% Dextrose
  pH: 6.9
[1]; [20]
  Decitabine Content (%): 98.3%
  Total Impurities (%): (1.7%)
[1]; [21]
  Decitabine Content (%): 98.1%
  Total Impurities (%): (1.9%)
[1]; [22]
  Decitabine Content (%): 97.0%
  Total Impurities (%): (3.0%)
[1]; [23]
  Decitabine Content (%): 95.9%
  Total Impurities (%): (4.1%)
[1]; [24]
  Decitabine Content (%): 94.9%
  Total Impurities (%): (5.2%)
[1]; [25]
  Decitabine Content (%): 98.0%
  Total Impurities (%): (2.1%)
[1]; [26]
  Decitabine Content (%): 93.4%
  Total Impurities (%): (6.7%)
[1]; [27]
  Decitabine Content (%): 92.6%
  Total Impurities (%): (7.4%)
[1]; [28]
  Decitabine Content (%): 91.8%
  Total Impurities (%): (8.3%)
[1]; 0.1 mg/mL, Lactated Ringer's
  pH: 6.7
[1]; @ 4° C.
  Average degradation rate: 0.40 %/hr
[1]; @ Room Temperature
  Average degradation rate: 2.44 %/hr
[1]; S1 (6 hr stored @4° C. + 3 hr @ RT during infusion)
  Maximum degradation (% peak area): 9.72 % peak area
[1]; S2 (7 hr stored @4° C. + 3 hr @ RT during infusion)
  Maximum degradation (% peak area): 10.12 % peak area
[1]; S3 (7 hr stored @4° C. + 2 hr @ RT during infusion)
  Maximum degradation (% peak area): 7.68 % peak area
[1]; S4 (8 hr stored @4° C. + 3 hr @ RT during infusion)
  Maximum degradation (% peak area): 10.52 % peak area
[1]; S5 (8 hr stored @4° C. + 2 hr @ RT during infusion)
  Maximum degradation (% peak area): 8.08 % peak area
[1]; S6 (9 hr stored @4° C. + 2 hr @ RT during infusion)
  Maximum degradation (% peak area): 8.48 % peak area
[1]; S7 (10 hr stored @4° C. + 2 hr @ RT during infusion)
  Maximum degradation (% peak area): 8.88 % peak area
[1]; Table 1 and Table 2 solutions
  pH deviation from neutral pH after preparation of the infusion: ≤ 0.3 pH units
[1]; [29]
  Decitabine Content (%): 98.0%
  Total Impurities (%): (2.1%)
[1]; [30]
  Decitabine Content (%): 96.8%
  Total Impurities (%): (3.3%)
[1]; [31]
  Decitabine Content (%): 94.8%
  Total Impurities (%): (5.2%)
[1]; [32]
  Decitabine Content (%): 92.8%
  Total Impurities (%): (7.3%)
[1]; [33]
  Decitabine Content (%): 91.1%
  Total Impurities (%): (9.0%)
[1]; [34]
  Decitabine Content (%): 97.4%
  Total Impurities (%): (2.7%)
[1]; [35]
  Decitabine Content (%): 93.4%
  Total Impurities (%): (6.7%)
[1]; [36]
  Decitabine Content (%): 92.5%
  Total Impurities (%): (7.6%)
[1]; [37]
  Decitabine Content (%): 90.8%
  Total Impurities (%): (9.2%)
[1]; about 1.0 mg/mL, 0.9% NaCl
  pH: 6.7
[1]; [38]
  Decitabine Content (%): 98.0%
  Total Impurities (%): (2.0%)
[1]; [39]
  Decitabine Content (%): 97.0%
  Total Impurities (%): (3.1%)
[1]; [40]
  Decitabine Content (%): 95.6%
  Total Impurities (%): (4.4%)
[1]; [41]
  Decitabine Content (%): 93.7%
  Total Impurities (%): (6.4%)
[1]; [42]
  Decitabine Content (%): 91.9%
  Total Impurities (%): (8.1%)
[1]; [43]
  Decitabine Content (%): 97.7%
  Total Impurities (%): (2.4%)
[1]; [44]
  Decitabine Content (%): 94.5%
  Total Impurities (%): (5.5%)
[1]; [45]
  Decitabine Content (%): 93.9%
  Total Impurities (%): (6.1%)
[1]; [46]
  Decitabine Content (%): 93.0%
  Total Impurities (%): (7.1%)
[1]; about 1.0 mg/mL, 5% Dextrose
  pH: 7.1
[1]; [47]
  Decitabine Content (%): 98.1%
  Total Impurities (%): (2.0%)
[1]; [48]
  Decitabine Content (%): 97.3%
  Total Impurities (%): (2.7%)
[1]; [49]
  Decitabine Content (%): 96.2%
  Total Impurities (%): (3.8%)
[1]; [50]
  Decitabine Content (%): 95.1%
  Total Impurities (%): (4.9%)
[1]; [51]
  Decitabine Content (%): 93.7%
  Total Impurities (%): (6.4%)
[1]; [52]
  Decitabine Content (%): 98.0%
  Total Impurities (%): (2.1%)
[1]; [53]
  Decitabine Content (%): 94.1%
  Total Impurities (%): (5.9%)
[1]; [54]
  Decitabine Content (%): 93.3%
  Total Impurities (%): (6.8%)
[1]; [55]
  Decitabine Content (%): 91.8%
  Total Impurities (%): (8.2%)
[1]; about 1.0 mg/mL, Lactated Ringer's
  pH: 6.8
[1]; all reconstituted and diluted solutions
  Visual inspection of solutions: clear and colorless
[1]; infusions prepared and stored as instructed
  Drug content in the infusion solution during infusion: above 90%
